Earlier results in patent US20060134172A1, “Agents which regulate, inhibit, or modulate the activity and/or expression of lysyl oxidase (LOX) and LOX-like proteases as a unique means to both lower intraocular pressure and treat glaucomatous retinopathies/optic neuropathies” (Alcon, Inc., priority 2004, published 2006).

Target: T1, lysyl oxidase (Homo sapiens, UniProt P28300)
T1 sequence (P28300 169-417): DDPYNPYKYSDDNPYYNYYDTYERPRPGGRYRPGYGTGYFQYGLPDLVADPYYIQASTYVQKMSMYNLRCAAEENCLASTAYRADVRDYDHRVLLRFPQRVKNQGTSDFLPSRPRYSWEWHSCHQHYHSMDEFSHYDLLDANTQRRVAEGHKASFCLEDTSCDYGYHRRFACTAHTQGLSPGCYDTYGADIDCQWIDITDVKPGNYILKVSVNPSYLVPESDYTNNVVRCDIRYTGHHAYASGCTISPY
Settings: known from U.S. Pat. No. 4,444,787

For `N#CCCN` [β-aminopropionitrile (BAPN), β-aminopropionitrile], the “in vitro inhibition of lysyl oxidase” value is listed as “inhibition”.
